Data from patent US20230159511A1, “TETRAHYDROISOQUINOLINE COMPOUNDS AS NRF2 ACTIVATORS” (C4X Discovery Limited, priority 2020, published 2023).
Read-outs that look alike come from different tables or passages of the source.

Experiments:
[1] = target: T1, human KEAP1 (N-term, residues 321-609) (Homo sapiens, UniProt Q14145); test: KEAP1 Kelch Fluorescence Polarization (FP) Assay; assay type: binding; settings: inhibition of Kelch domain-NRF2 interaction; 2 nM FITC-labelled NRF2 peptide, 25 nM KEAP1, 1 h room temperature; compounds below 10 nM cannot be differentiated
T1 construct: human KEAP1 (N-term, residues 321-609)
How it was run: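 FP competition: 2 nM FITC-NRF2 peptide (LDEETGEFL) with 25 nM KEAP1 Kelch domain, pH 8.0 Tris buffer, 0.5% DMSO, 1 h at room temperature; 12-point 1:3 dilutions from 10 μM.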

[2] = test system: NRF2 mediated gene NAD(P)H:quinone acceptor oxidoreductase 1 (NQO1) in BEAS-2B cells; test: Beas2B NQO1 mRNA Cell Based Assay; parameters: species or system human; settings: Homo sapiens
Method: Beas2B NQO1 mRNA Cell Based Assay
The up regulation of the NRF2 mediated gene NAD(P)H:quinone acceptor oxidoreductase 1 (NQO1) was measured using the following assay method: BEAS-2B cells (ATCC CRL-9609) were plated in 96-well clear plates at 20,000 cells/well in 75 μL of cell culture media and incubated overnight (37° C., 5% CO2). On day 2, 25 μL of compound or controls were added to the cells for 24 h. On day 3, the medium was aspirated from the plate and the Cells-to-CT™ 1-Step TaqMan® Kit (Ambion A25603) was used to perform expression analysis directly from cultured cells without RNA purification according to the manufacturer's instructions.
Briefly, cells were washed with ice cold PBS and 22.5 μL of room-temperature DNase/Lysis solution was added to the cells and incubated at room temperature for 5 minutes. To stop the reaction, 2.25 μL of stop solution was added to the cell lysate. The samples were diluted 1:5 using nuclease free water and 2.5 μL transferred into the PCR plate. Real-time PCR was performed using the C-1000 Thermal Cycler (Bio-Rad) using human beta actin as the internal control. The cDNA was amplified with a specific primer for NQO1 using the 1-step RT-PCR master mix (Ambion Cells-to-CTTM 1-Step TaqMan® Kit A25603). The primers/probes sets that were used for amplification of cDNA were obtained from TaqMan Gene Expression Assays (Applied Biosystems). The comparative CT (ΔΔCT) relative quantification method was used to calculate the relative mRNA level of the target gene NQO1 as described in the Applied Biosystems Chemistry Guide. The data are expressed as an increase in target gene mRNA compared to vehicle (0.1% DMSO) control and the EC50 values were determined by fitting the data to a four parameter logistic fit using XLfit or XE Runner within ActivityBase.

[3] = BEAS-2B cells, compound for 24 h, increase in NQO1 mRNA compared to vehicle (0.1% DMSO) control, read-out: EC50

T1 sequence (Q14145 321-609): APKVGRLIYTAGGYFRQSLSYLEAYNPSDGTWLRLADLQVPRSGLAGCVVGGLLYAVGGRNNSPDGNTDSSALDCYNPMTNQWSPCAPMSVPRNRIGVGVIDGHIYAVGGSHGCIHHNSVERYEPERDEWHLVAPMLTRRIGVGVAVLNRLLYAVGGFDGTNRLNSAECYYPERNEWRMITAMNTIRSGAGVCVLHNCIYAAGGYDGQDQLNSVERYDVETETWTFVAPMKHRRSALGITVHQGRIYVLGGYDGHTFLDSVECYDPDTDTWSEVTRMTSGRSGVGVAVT

| IC50 [1] [nM] | Structure (SMILES) | EC50 [2, 3] [nM] | EC50 ([2]; BEAS-2B, 24 h) [nM] |
| --- | --- | --- | --- |
| 31 | NC(=O)[C@H]1CCCC[C@H]1C(=O)N1CCc2c(Cl)ccc(OCc3noc4ccccc34)c2[C@H]1CN1CCCC1=O [Example 54, (1S,2R)-2-((S)-8-(benzo[d]isoxazol-3-ylmethoxy)-5-chloro-1-((2-oxopyrrolidin-1-yl)methyl)-1,2,3,4-tetrahydroisoquinoline-2-carbonyl)cyclohexane-1-carboxamide, reference compound] | 135 |  |
| 54 | CNC(=O)[C@H]1CCCC[C@H]1C(=O)N1CCc2c(Br)ccc(OCc3noc(C(C)C)n3)c2[C@H]1CN1CCCC1=O [Example 55, (1S,2R)-2-((S)-5-bromo-8-((5-isopropyl-1,2,4-oxadiazol-3-yl)methoxy)-1-((2-oxopyrrolidin-1-yl)methyl)-1,2,3,4-tetrahydroisoquinoline-2-carbonyl)-N-methylcyclohexane-1-carboxamide] | 330 |  |
| 13 | CNC(=O)[C@H]1CCCC[C@H]1C(=O)N1CCc2c(Br)ccc(OCc3nnn(C)c3C(F)F)c2[C@H]1CN1Cc2ccccc2C1=O [Example 56, (1S,2R)-2-((S)-5-bromo-8-((5-(difluoromethyl)-1-methyl-1H-1,2,3-triazol-4-yl)methoxy)-1-((1-oxoisoindolin-2-yl)methyl)-1,2,3,4-tetrahydroisoquinoline-2-carbonyl)-N-methylcyclohexane-1-carboxamide] | 124 |  |
| 112 | CNC(=O)[C@H]1CCCC[C@H]1C(=O)N1CCc2c(Cl)ccc(OCc3noc(C(C)C)n3)c2[C@H]1CN1CCCC1=O [Example 57, (1S,2R)-2-((S)-5-chloro-8-((5-isopropyl-1,2,4-oxadiazol-3-yl)methoxy)-1-((2-oxopyrrolidin-1-yl)methyl)-1,2,3,4-tetrahydroisoquinoline-2-carbonyl)-N-methylcyclohexane-1-carboxamide] | 4000 |  |
| 11 | CNC(=O)[C@H]1CCCC[C@H]1C(=O)N1CCc2c(Cl)ccc(OCc3nnn(C)c3C(F)F)c2[C@H]1CN1CCCC1=O [Example 58, (1S,2R)-2-((S)-5-chloro-8-((5-(difluoromethyl)-1-methyl-1H-1,2,3-triazol-4-yl)methoxy)-1-((2-oxopyrrolidin-1-yl)methyl)-1,2,3,4-tetrahydroisoquinoline-2-carbonyl)-N-methylcyclohexane-1-carboxamide] | 206 |  |
| 72 | CNC(=O)[C@H]1CCCC[C@H]1C(=O)N1CCc2c(Cl)ccc(OCc3cccnc3)c2[C@H]1CN1CCCC1=O [Example 60, (1S,2R)-2-((S)-5-chloro-1-((2-oxopyrrolidin-1-yl)methyl)-8-(pyridin-3-ylmethoxy)-1,2,3,4-tetrahydroisoquinoline-2-carbonyl)-N-methylcyclohexane-1-carboxamide] | 650 |  |
| 34 | CNC(=O)[C@H]1CCCC[C@H]1C(=O)N1CCc2c(Cl)ccc(OCc3cccnn3)c2[C@H]1CN1CCCC1=O [Example 61, (1S,2R)-2-((S)-5-chloro-1-((2-oxopyrrolidin-1-yl)methyl)-8-(pyridazin-3-ylmethoxy)-1,2,3,4-tetrahydroisoquinoline-2-carbonyl)-N-methylcyclohexane-1-carboxamide] | 1080 |  |
| 82 | CNC(=O)[C@H]1CCCC[C@H]1C(=O)N1CCc2c(Cl)ccc(OCc3cnccn3)c2[C@H]1CN1CCCC1=O [Example 62, (1S,2R)-2-((S)-5-chloro-1-((2-oxopyrrolidin-1-yl)methyl)-8-(pyrazin-2-ylmethoxy)-1,2,3,4-tetrahydroisoquinoline-2-carbonyl)-N-methylcyclohexane-1-carboxamide] | 1460 |  |
| 340 | CNC(=O)[C@H]1CCCC[C@H]1C(=O)N1CCc2c(Cl)ccc(OCc3ccccn3)c2[C@H]1CN1CCCC1=O [Example 63, (1S,2R)-2-((S)-5-chloro-1-((2-oxopyrrolidin-1-yl)methyl)-8-(pyridin-2-ylmethoxy)-1,2,3,4-tetrahydroisoquinoline-2-carbonyl)-N-methylcyclohexane-1-carboxamide] | > 10000 |  |
| 41 | CNC(=O)[C@H]1CCCC[C@H]1C(=O)N1CCc2c(Cl)ccc(OCc3cncnc3)c2[C@H]1CN1CCCC1=O [Example 64, (1S,2R)-2-((S)-5-chloro-1-((2-oxopyrrolidin-1-yl)methyl)-8-(pyrimidin-5-ylmethoxy)-1,2,3,4-tetrahydroisoquinoline-2-carbonyl)-N-methylcyclohexane-1-carboxamide] | 5750 |  |
| 151 | CNC(=O)[C@H]1CCCC[C@H]1C(=O)N1CCc2c(Cl)ccc(OCCc3cn(C)nn3)c2[C@H]1CN1CCCC1=O [Example 66, (1S,2R)-2-((S)-5-chloro-8-(2-(1-methyl-1H-1,2,3-triazol-4-yl)ethoxy)-1-((2-oxopyrrolidin-1-yl)methyl)-1,2,3,4-tetrahydroisoquinoline-2-carbonyl)-N-methylcyclohexane-1-carboxamide] | 5660 |  |
| 13 | CNC(=O)[C@H]1CCCC[C@H]1C(=O)N1CCc2c(Cl)ccc(OCc3cnc4c(c3)ncn4C)c2[C@H]1CN1CCCC1=O [Example 68, (1S,2R)-2-((S)-5-chloro-8-((3-methyl-3H-imidazo[4,5-b]pyridin-6-yl)methoxy)-1-((2-oxopyrrolidin-1-yl)methyl)-1,2,3,4-tetrahydroisoquinoline-2-carbonyl)-N-methylcyclohexane-1-carboxamide] | 145 |  |
| 14 | CNC(=O)[C@@]1(C)CCCC[C@H]1C(=O)N1CCc2c(Cl)ccc(OCc3nnn(C)c3C(F)F)c2[C@H]1CN1CCCC1=O [Example 69, (1S,2R)-2-((S)-5-chloro-8-((5-(difluoromethyl)-1-methyl-1H-1,2,3-triazol-4-yl)methoxy)-1-((2-oxopyrrolidin-1-yl)methyl)-1,2,3,4-tetrahydroisoquinoline-2-carbonyl)-N,1-dimethylcyclohexane-1-carboxamide] | 239 |  |
| 29 | CNC(=O)[C@H]1CCCC[C@H]1C(=O)N1CCc2c(Cl)ccc(OCc3noc4ncccc34)c2[C@H]1CN1CCCC1=O [Example 70, (1S,2R)-2-((S)-5-chloro-8-(isoxazolo[5,4-b]pyridin-3-ylmethoxy)-1-((2-oxopyrrolidin-1-yl)methyl)-1,2,3,4-tetrahydroisoquinoline-2-carbonyl)-N-methylcyclohexane-1-carboxamide] | 295 |  |
| 17 | CNC(=O)[C@H]1CCCC[C@H]1C(=O)N1CCc2c(Cl)ccc(OCc3ccc4c(C)noc4n3)c2[C@H]1CN1CCCC1=O [Example 71, (1S,2R)-2-((S)-5-chloro-8-((3-methylisoxazolo[5,4-b]pyridin-6-yl)methoxy)-1-((2-oxopyrrolidin-1-yl)methyl)-1,2,3,4-tetrahydroisoquinoline-2-carbonyl)-N-methylcyclohexane-1-carboxamide] | 116 |  |
| 27 | CNC(=O)[C@H]1CCCC[C@H]1C(=O)N1CCc2c(Cl)ccc(OCc3ccc4c(c3)nnn4C)c2[C@H]1CN1CCCC1=O [Example 72, (1S,2R)-2-((S)-5-chloro-8-((1-methyl-1H-benzo[d][1,2,3]triazol-5-yl)methoxy)-1-((2-oxopyrrolidin-1-yl)methyl)-1,2,3,4-tetrahydroisoquinoline-2-carbonyl)-N-methylcyclohexane-1-carboxamide] | 605 |  |
| 9.4 | CNC(=O)[C@H]1CCCC[C@H]1C(=O)N1CCc2c(Cl)ccc(OCc3nnc4ccccn34)c2[C@H]1CN1CCCC1=O [Example 73, (1S,2R)-2-((S)-8-([1,2,4]triazolo[4,3-a]pyridin-3-ylmethoxy)-5-chloro-1-((2-oxopyrrolidin-1-yl)methyl)-1,2,3,4-tetrahydroisoquinoline-2-carbonyl)-N-methylcyclohexane-1-carboxamide] | 288 |  |

| Structure (SMILES) | IC50 [1] [nM] | EC50 [2, 3] [nM] | EC50 ([2]; BEAS-2B, 24 h) [nM] |
| --- | --- | --- | --- |
| CNC(=O)N1CCC[C@H]1C(=O)N1CCc2c(Cl)ccc(OCc3nnn(C)c3C(F)F)c2[C@H]1CN1CCCC1=O [Example 67, (S)-2-((S)-5-chloro-8-((5-(difluoromethyl)-1-methyl-1H-1,2,3-triazol-4-yl)methoxy)-1-((2-oxopyrrolidin-1-yl)methyl)-1,2,3,4-tetrahydroisoquinoline-2-carbonyl)-N-methylpyrrolidine-1-carboxamide] | 29 |  | 1360 |
